# Earlier results in patent US20050250805A1, “Pharmaceutical ointment formulations” (Glenmark Pharmaceuticals Limited, priority 2004, published 2005).
# Assays:
# human subjects = conditions: 50 human subjects, total of 15 applications; according to the manufacturer's brochure
compound,measurement,setting,value
"CN1CCCC1=O [Pharmasolve, N-methyl-2-pyrrolidone]",PII (skin irritation; practically nonirritating to rabbit skin),rabbit skin,0.5
same,Primary dermal irritation / sensitization in repeated insult patch test,human subjects,neither a primary dermal irritant nor a sensitizer
